Measured values published in patent publication US20140221639A1, “RADIOLABELED NUCLEOSIDE ANALOGUE, AND PREPARATION METHOD AND USE THEREOF” (Institute of Nuclear Energy Research Atomic Energy Council, …, priority 2011, published 2014).
Where “and” joins values, the source holds several entries; their conditions need not be identical. Equal values may be shown once. Read-outs that look alike come from different tables or passages of the source.

What was measured:
[1] = literature; cited from earlier work
[2] = in mice, as shown in literatures; cited from earlier work
[3] = in human body, as shown in literatures; cited from earlier work
NG4TL4 cells = assay: Cellular uptake test (ratio of cell to medium); assay type: cell-based; details: 1, 2, 4 and 8 h
Protocol: (§1) 2×10^6 cells was inoculated in a 15 cm^2 dish containing 14 mL medium supplemented with 10% FBS. […] At specified time points (using I-131 tracer at 1, 2, 4 and 8_h), the cells on the dish was harvested by using a cell scraper. Then, a cell suspension was transferred to a 15 mL centrifuge tube and centrifuged (at 3500 rpm) for 2 min. After centrifugation, 100 μL centrifugate was collected to a preweighed counting tube and directly poured into a maintained medium. Cell pellets were frozen with dry ice, and further collected into another weighed counting tube. […] Accumulation of activity of radioactive trancer in cell in vitro is represented by a radio of cell to medium:
(§2) Uptake experimental results of the two radioactive nucleoside analogues [^131I]IUdR and [^131I]ICdR in cells are as shown in FIGS. 4((a), (b)).

LL/2 cells = assay: Cellular uptake test (ratio of cell to medium); assay type: cell-based; details: 1, 2, 4 and 8 h
Protocol: as §1, §2

NG4TL4-WT tumor = assay: Biodistribution study in tumor-bearing mice; assay type: in vivo, FVB/N mice; details: for Biodistribution Blood / Biodistribution Bone / Biodistribution Brain / Biodistribution Heart / Biodistribution Kidney / Biodistribution Large Intestine / Biodistribution Liver / Biodistribution Lung / Biodistribution Marrow / Biodistribution Muscle / Biodistribution Pancreas / Biodistribution Small Intestine / Biodistribution Spleen / Biodistribution Stomach / Biodistribution Tumor / T/B (aggregation ratio of tumor to blood) / T/M (tumor-muscle aggregation ratio): 80~90 μCi tail vein, FVB/N mice with NG4TL4-WT tumor
Text: […] Tumor and 13 other tissures (blood, heart, lung, liver, stomach, small intestine, large intestine, spleen, pancreas, kidney, bone, marrow, and muscle) were removed, rinsed, weighed, and determined for radioactivity with a γ scintilation counter. Uptake of the radioactive trancers in the tissues (counts per min) was calibrated against decay, normalizedto sample weight, and expressed as percentages of injected dosage per gram of tissue (% ID/g) and aggregation ratio of tumor to blood.

NG4TL4 sarcoma cells = assay: Study on incorporation in DNA; assay type: cell-based; details: 1 μCi/mL medium, 0.5-8 h
Protocol: DNA was extracted with Genomic DNA Mini Kit (Geneaid Biotech Ltd., Taiwan). NG4TL4 cell lines were harvested and inoculated into a petri dish at 2×10^6. […] At 0.5, 1, 2, 4 and 8 h after incubation, the medium was removed, and the cells was washed two times with ice-cold PBS, and then sheared with trypsin and collected to a centrifuge tube for centrifugation (at […] for 1 min). The supernatant was removed, while 50 μL remaining buffer was left to keep the cells in suspension. 300 μL cell lysis buffer was added to the sample and uniformly mixed, the cells was cultured in a water bath at 60° C. for a sereral minutes till the solution was transparent (the sample was inversed once every 3 min). 2 μL RNAse (25 mg/mL) was added to the sample and uniformly mixed, after 5-min incubation at room temperature, 100 μL protein removal buffer was added to the sample, uniformly mixed immediately, and centrifuged for 3 min at full speed (14000 rpm) after 5-min incubation on ice. The resulting solution was transferred as a suspension to another tube, and isopropanol was added and thoroughly mixed. […] In the test, DNA purity was determined at absorption wavelengths of 260 nm and 280 nm, and the ratio of absorbances (OD260/OD280) was about 1.7.

[4] = Analysis of metabolites in blood and urine through NP-TLC; assay type: in vivo, FVB/N mice; details: NP-TLC EA/EtOH = 5/1
Protocol: Blood samples were obtained by heart puncture, and then centrifuged at 13,000 rpm for 10 min. Then, the supernatant (about 300 μL) was placed in a 1.5 mL centrifuge tube containing equal amount of ethanol, and then centrifuged again to obtain the serum.

[5] = mouse, in vivo, iv
[6] = 0.25 h after ^131I-ICdR at tail vein
[7] = 1 h after ^131I-ICdR at tail vein
[8] = 2 h after ^131I-ICdR at tail vein

Cc1cn([C@@H]2O[C@H](CO)[C@@H](O)[C@@H]2[18F])c(=O)[nH]c1=O [[^18F]FMAU, 2-[^18F]fluoro-5-methyl-1-β-D-arabinofuranosyluracil]
stability in the organism [1]: very stable

O=c1[nH]c(=O)n([C@H]2C[C@H](O)[C@@H](CO)O2)cc1I [IUdR]
in vivo physiological half life [2]: 7 min
in vivo physiological half life [3]: 5 min

Nc1nc(=O)n([C@H]2C[C@H](O)[C@@H](CO)O2)cc1[131I] [^131I-ICdR]
uptake value over time (NG4TL4 cells): continuously increased with time
uptake value over time (LL/2 cells): continuously increased with time
Biodistribution Blood (NG4TL4-WT tumor; 1 h): 6.21 ± 1.11 % ID/g
Biodistribution Bone (NG4TL4-WT tumor; 1 h): 0.96 ± 0.13 % ID/g
Biodistribution Brain (NG4TL4-WT tumor; 1 h): 0.25 ± 0.03 % ID/g
Biodistribution Heart (NG4TL4-WT tumor; 1 h): 1.45 + 0.14 % ID/g
Biodistribution Kidney (NG4TL4-WT tumor; 1 h): 3.96 ± 0.39 % ID/g
Biodistribution Large Intestine (NG4TL4-WT tumor; 1 h): 2.92 ± 0.18 % ID/g
Biodistribution Liver (NG4TL4-WT tumor; 1 h): 2.05 ± 0.20 % ID/g
Biodistribution Lung (NG4TL4-WT tumor; 1 h): 3.52 ± 0.48 % ID/g
Biodistribution Marrow (NG4TL4-WT tumor; 1 h): 3.29 ± 0.08 % ID/g
Biodistribution Muscle (NG4TL4-WT tumor; 1 h): 0.85 ± 0.04 % ID/g
Biodistribution Pancreas (NG4TL4-WT tumor; 1 h): 2.81 ± 0.42 % ID/g
Biodistribution Small Intestine (NG4TL4-WT tumor; 1 h): 4.79 ± 0.41 % ID/g
Biodistribution Spleen (NG4TL4-WT tumor; 1 h): 4.03 ± 0.55 % ID/g
Biodistribution Stomach (NG4TL4-WT tumor; 1 h): 17.07 + % ID/g
Biodistribution Tumor (NG4TL4-WT tumor; 1 h): 3.46 ± 0.07 % ID/g
T/B (aggregation ratio of tumor to blood) (NG4TL4-WT tumor; 1 h): 0.56
T/M (tumor-muscle aggregation ratio) (NG4TL4-WT tumor; 1 h): 4.07
Biodistribution Blood (NG4TL4-WT tumor; 2 h): 3.76 ± 0.13 % ID/g
Biodistribution Bone (NG4TL4-WT tumor; 2 h): 0.71 ± 0.19 % ID/g
Biodistribution Brain (NG4TL4-WT tumor; 2 h): 0.15 ± 0.03 % ID/g
Biodistribution Heart (NG4TL4-WT tumor; 2 h): 1.14 + 0.01 % ID/g
Biodistribution Kidney (NG4TL4-WT tumor; 2 h): 2.36 ± 0.06 % ID/g
Biodistribution Large Intestine (NG4TL4-WT tumor; 2 h): 2.54 ± 0.33 % ID/g
Biodistribution Liver (NG4TL4-WT tumor; 2 h): 1.43 ± 0.09 % ID/g
Biodistribution Lung (NG4TL4-WT tumor; 2 h): 2.72 ± 0.17 % ID/g
Biodistribution Marrow (NG4TL4-WT tumor; 2 h): 3.58 ± 1.12 % ID/g
Biodistribution Muscle (NG4TL4-WT tumor; 2 h): 0.61 ± 0.05 % ID/g
Biodistribution Pancreas (NG4TL4-WT tumor; 2 h): 2.08 ± 0.08 % ID/g
Biodistribution Small Intestine (NG4TL4-WT tumor; 2 h): 4.79 ± 0.45 % ID/g
Biodistribution Spleen (NG4TL4-WT tumor; 2 h): 3.07 ± 0.09 % ID/g
Biodistribution Stomach (NG4TL4-WT tumor; 2 h): 14.99 ± 4.04 % ID/g
Biodistribution Tumor (NG4TL4-WT tumor; 2 h): 3.78 ± 0.07 % ID/g
T/B (aggregation ratio of tumor to blood) (NG4TL4-WT tumor; 2 h): 1.00
T/M (tumor-muscle aggregation ratio) (NG4TL4-WT tumor; 2 h): 6.16
Biodistribution Blood (NG4TL4-WT tumor; 4 h): 3.40 ± 0.15 % ID/g
Biodistribution Bone (NG4TL4-WT tumor; 4 h): 0.77 ± 0.07 % ID/g
Biodistribution Brain (NG4TL4-WT tumor; 4 h): 0.12 ± 0.02 % ID/g
Biodistribution Heart (NG4TL4-WT tumor; 4 h): 0.84 + 0.07 % ID/g
Biodistribution Kidney (NG4TL4-WT tumor; 4 h): 2.07 ± 0.10 % ID/g
Biodistribution Large Intestine (NG4TL4-WT tumor; 4 h): 2.88 ± 0.21 % ID/g
Biodistribution Liver (NG4TL4-WT tumor; 4 h): 0.85 ± 0.01 % ID/g
Biodistribution Lung (NG4TL4-WT tumor; 4 h): 2.28 ± 0.12 % ID/g
Biodistribution Marrow (NG4TL4-WT tumor; 4 h): 3.82 ± 0.54 % ID/g
Biodistribution Muscle (NG4TL4-WT tumor; 4 h): 0.51 ± 0.04 % ID/g
Biodistribution Pancreas (NG4TL4-WT tumor; 4 h): 2.09 ± 0.13 % ID/g
Biodistribution Small Intestine (NG4TL4-WT tumor; 4 h): 5.27 ± 0.39 % ID/g
Biodistribution Spleen (NG4TL4-WT tumor; 4 h): 2.88 ± 0.13 % ID/g
Biodistribution Stomach (NG4TL4-WT tumor; 4 h): 17.68 ± 0.74 % ID/g
Biodistribution Tumor (NG4TL4-WT tumor; 4 h): 4.85 ± 0.17 % ID/g
T/B (aggregation ratio of tumor to blood) (NG4TL4-WT tumor; 4 h): 1.43
T/M (tumor-muscle aggregation ratio) (NG4TL4-WT tumor; 4 h): 9.59
Biodistribution Blood (NG4TL4-WT tumor; 8 h): 0.77 ± 0.10 % ID/g
Biodistribution Bone (NG4TL4-WT tumor; 8 h): 0.11 ± 0.02 % ID/g
Biodistribution Brain (NG4TL4-WT tumor; 8 h): 0.01 ± 0.00 % ID/g
Biodistribution Heart (NG4TL4-WT tumor; 8 h): 0.19 + 0.03 % ID/g
Biodistribution Kidney (NG4TL4-WT tumor; 8 h): 0.75 ± 0.02 % ID/g
Biodistribution Large Intestine (NG4TL4-WT tumor; 8 h): 1.33 ± 0.06 % ID/g
Biodistribution Liver (NG4TL4-WT tumor; 8 h): 0.38 ± 0.02 % ID/g
Biodistribution Lung (NG4TL4-WT tumor; 8 h): 0.69 ± 0.16 % ID/g
Biodistribution Marrow (NG4TL4-WT tumor; 8 h): 2.31 ± 0.10 % ID/g
Biodistribution Muscle (NG4TL4-WT tumor; 8 h): 0.09 ± 0.01 % ID/g
Biodistribution Pancreas (NG4TL4-WT tumor; 8 h): 0.38 ± 0.05 % ID/g
Biodistribution Small Intestine (NG4TL4-WT tumor; 8 h): 2.06 ± 0.13 % ID/g
Biodistribution Spleen (NG4TL4-WT tumor; 8 h): 2.77 ± 0.09 % ID/g
Biodistribution Stomach (NG4TL4-WT tumor; 8 h): 2.85 ± 0.61 % ID/g
Biodistribution Tumor (NG4TL4-WT tumor; 8 h): 2.32 ± 0.27 % ID/g
T/B (aggregation ratio of tumor to blood) (NG4TL4-WT tumor; 8 h): 3.02
T/M (tumor-muscle aggregation ratio) (NG4TL4-WT tumor; 8 h): 25.77
excretion of drug and metabolites (NG4TL4-WT tumor; mice): mainly through the urinary system
accumulation in organs (biodistribution and imaging) (NG4TL4-WT tumor; tumor-bearing mice): obviously accumulated in organs that rapidly proliferates
incorporation into cells / radioactive accumulation in DNA with time (NG4TL4 sarcoma cells): linearly incorporated
^131I-ICdR (%) in Blood [4, 6]: 63.10 ± 1.17%
^131I-ICdR (%) in Urine [4, 6]: 56.49 ± 6.58%
^131I-IUdR (%) in Blood [4, 6]: 18.62 ± 2.25%
^131I-IUdR (%) in Urine [4, 6]: 3.19 ± 1.03%
^131I-I^- (%) in Blood [4, 6]: 18.28 ± 3.39%
^131I-I^- (%) in Urine [4, 6]: 40.32 ± 6.18%
^131I-compound (unknown) (%) in Blood [4, 6]: 0%
^131I-compound (unknown) (%) in Urine [4, 6]: 0%
^131I-ICdR (%) in Blood [4, 7]: 72.2% and 72.16 ± 3.66%
^131I-ICdR (%) in Urine [4, 7]: 71.0% and 71 + 0.26%
^131I-IUdR (%) in Blood [4, 7]: 0%
^131I-IUdR (%) in Urine [4, 7]: 0%
^131I-I^- (%) in Blood [4, 7]: 14.11 ± 6.15%
^131I-I^- (%) in Urine [4, 7]: 26.54 ± 0.34%
^131I-compound (unknown) (%) in Blood [4, 7]: 13.73 ± 1.38%
^131I-compound (unknown) (%) in Urine [4, 7]: 2.46 ± 0.08%
^131I-ICdR (%) in Blood [4, 8]: 67.77 ± 7.33%
^131I-ICdR (%) in Urine [4, 8]: 81.1 ± 8.86%
^131I-IUdR (%) in Blood [4, 8]: 0%
^131I-IUdR (%) in Urine [4, 8]: 0%
^131I-I^- (%) in Blood [4, 8]: 19 + 5.90%
^131I-I^- (%) in Urine [4, 8]: 15.37 ± 7.67%
^131I-compound (unknown) (%) in Blood [4, 8]: 13.23 ± 1.97%
^131I-compound (unknown) (%) in Urine [4, 8]: 3.53 ± 1.96%
CL (total body clearance) [5]: 3.90 ± 0.59 mL/h
